One assay addresses T1, human KCNK9/TASK-3 (Homo sapiens, UniProt Q9NPC2).
T1 construct: expressed in transfected cells; host or cells: HEK cells (tetracycline-inducible)
The assay is described as follows: Thallium flux through human TASK-3 (KCNK9-HEK cells). The following applies: Tl+ flux; 3 nM to 30 μM; read-out: hTASK-3 IC50. It counts as cell-based. As for the experimental part: (§1) CHO cells expressing recombinant tetracycline-inducible rat KCNK3/TASK-1 (KCNK3-CHO cells) were plated in poly-D-lysine coated 384-well plates at a density of 6,000 cells/well (50 μl/well of 120,000 cells/mL) and allowed to incubate for 72 hrs in the presence of 5% CO2 and 1 μg/mL tetracycline at 30° C. HEK cells expressing recombinant tetracycline-inducible human KCNK9/TASK-3 (KCNK9-HEK cells) were plated at a density of 15,000 cells per well (50 μl/well, 300,000 cells/mL) and incubated overnight at 37° C. and 5% CO2 in the presence of 1 μg/mL tetracycline.
(§2) Drug plates were generated from 10 mM 100% DMSO mother plates. Compounds were transferred to 384-well drug plates and titrated with sequential 1:3 dilutions in 100% DMSO for a total of 9 dilutions. A dilution plate is made by taking 2.4 μl from the mother plate and adding to […] of assay buffer for a 12% DMSO dilution plate. From this dilution plate, a final daughter plate is generated by taking 1 μA of the dilution plate and adding to 40 μA of assay buffer for a final DMSO concentration of 0.3%. Each compound was evaluated in duplicate and the concentration range evaluated was 3 nM to 30 μM.
(§3) When thallium was added to extracellular solution with a stimulus to open channels, Tl^+ flowed down its concentration gradient into the cells and channel activity was detected with an indicator dye, FluxOR™, that increased in cytosolic fluorescence. The FluxOR™ indicator dye was loaded into cells as a membrane permeable acetoxymethyl ester. On the day of each assay, FluxOR™ assay buffer was made fresh from Hank's Balanced Saline Solution (HBSS) buffered with 20 mM HEPES and pH adjusted to 7.4 with NaOH. Dye loading solution was prepared per manufacturer's instructions, and 25 μl of dye solution applied to each well with a multidropper after plating medium was removed manually from cells. Dye was allowed to load for 90 minutes at room temperature in the dark.
(§4) After the 90 min dye loading incubation and subsequent manual dye removal, 24 μl of the drug daughter plate was transfer to cell plates by a cybi-well system and then incubated at room temperature for 20 minutes to allow for equilibration within wells. Stimulation buffer was prepared from 5× chloride-free buffer, thallium, and potassium sulfate containing 5 times the desired final assay concentration of 10 mM K^+ 2.8 mM Tl^+. Cell plates were then transferred to an FDSS 6000 kinetic imaging plate reader (Hamamatsu). Fluorescence at 525 nm (excitation 488 nm) was measured for 10 seconds at 1 Hz to establish baseline for the entire plate. After baseline was established, 6 μl/well of stimulation buffer was added and fluorescence signal recorded for another 140 seconds.
(§5) From the fluorescence signals in the absence and presence of Galleon compounds, Inhibitory concentration curves were plotted and IC50 values were estimated using a curve fitting algorithm.

The subject of assay [1] is opioid-induced respiratory depression. The assay can be described thus: Opioid-induced respiratory depression in the monkey. In kind it is in vivo, Macaca fascicularis. The following applies: 0.20 mg/kg/min 5 min, then 0.10 mg/kg/min 10 min. As for the experimental part: Juvenile macaques (four-year-old Macaca fascicularis, 2 to 5 kg, n=13) were used for the study. Animal husbandry was conducted under USDA guidelines and the protocols were approved by the Institutional Animal Care and Use Committee of East Carolina University.
Anesthesia was induced with 5% isoflurane and then maintained with 1.5 to 2% isoflurane (100% O2, 2 L/min). Antebrachial veins were cannulated. Vivometrics Lifeshirts (Ventura, Calif.) were fitted to the animals for monitoring respiratory function by inductance plethysmography. Abdomen and rib cage deflections were calibrated using the Qualitative Diagnostic Calibration (QDC) procedure, and tidal volume was normalized to 15 mL, which represented a typical tidal volume for these animals as previously measured using conventional techniques. Heart rate was monitored continuously by 3-lead ECG.
ETCO2 was measured via a neonatal nasal cannula connected to a microstream CO2 sensor (Cardell monitor, Model 9405). SpO2 and HR were monitored by pulse oximetry using a reflectance probe (Nelcor Max-Fast) positioned on the inner aspect of the upper arm. HR was also determined from the ECG allowing measurement when animal activity compromised the integrity of pulse oximetry signals. BP was measured in anesthetized animals using a cuff positioned on the ankle. […]

The next assay has as its target T2, rat KCNK3/TASK-1 (Rattus norvegicus, UniProt O54912).
T2 construct: expressed in transfected cells; host or cells: CHO cells (tetracycline-inducible)
The assay can be described thus: Thallium flux through rat TASK-1 (KCNK3-CHO cells). It counts as cell-based. The following applies: Tl+ flux; 3 nM to 30 μM; read-out: rTASK-1 IC50. As for the experimental part: as §1, §2, §3, §4, §5

Assay [2] has as its system morphine-induced respiratory depression. The assay is described as follows: Effects of morphine and compound on arterial blood gases in the rat. In kind it is in vivo. The following applies: for PaCO2 (% reversal) / PaO2 (% reversal) / SaO2 (% reversal) / pH (% reversal): morphine 10 mg/kg. On the procedure: Rats with pre-cannulated jugular vein and femoral arterial catheters (for administering drugs and obtaining blood samples respectively) were obtained from Harlan laboratories and kept at the animal facility at Galleon Pharmaceuticals until the experimental procedures. Each animal was dosed with morphine sulfate (10 mg/kg), dissolved in saline at a concentration of 10 mg/mL, via injection into the jugular vein over a period of 20 seconds with a 20 second flush of 0.9% NaCl saline. Prior to morphine administration, two 250 μL samples of arterial blood were aspirated from the femoral artery into a pre-heparinized syringe. The samples were analyzed on Radiometer's ABL Flex 800, where pO2, pCO2, pH, SaO2 and other parameters were recorded. Aspirated volumes of arterial blood were replaced by room temperature sterile saline (˜300 μL) slowly flushed back into the femoral arterial catheter of the rodent to prevent hypovolemia. Morphine was then administered and 2 minutes later another blood sample was taken.
The infusion started at t=15 minutes and ended at t=35 minutes. Arterial blood gas analysis occurred at time points t=12, 18, 25, 35, 40, 45, and 50 minutes.

A word on the IC50: it is the concentration that inhibits the measured activity by half.

Bounds are passed on as bounds.

T2 sequence (O54912 whole entry): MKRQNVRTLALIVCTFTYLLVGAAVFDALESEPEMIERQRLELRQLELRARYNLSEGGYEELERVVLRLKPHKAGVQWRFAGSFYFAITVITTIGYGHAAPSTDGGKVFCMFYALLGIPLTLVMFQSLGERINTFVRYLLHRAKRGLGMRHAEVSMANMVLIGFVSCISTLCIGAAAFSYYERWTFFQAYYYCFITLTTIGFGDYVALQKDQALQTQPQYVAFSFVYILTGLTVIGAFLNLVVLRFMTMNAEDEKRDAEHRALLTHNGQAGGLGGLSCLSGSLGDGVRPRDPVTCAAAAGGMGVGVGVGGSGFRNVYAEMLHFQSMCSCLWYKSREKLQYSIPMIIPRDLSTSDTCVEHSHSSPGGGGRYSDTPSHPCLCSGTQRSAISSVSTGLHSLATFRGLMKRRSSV
T1 sequence (Q9NPC2 whole entry): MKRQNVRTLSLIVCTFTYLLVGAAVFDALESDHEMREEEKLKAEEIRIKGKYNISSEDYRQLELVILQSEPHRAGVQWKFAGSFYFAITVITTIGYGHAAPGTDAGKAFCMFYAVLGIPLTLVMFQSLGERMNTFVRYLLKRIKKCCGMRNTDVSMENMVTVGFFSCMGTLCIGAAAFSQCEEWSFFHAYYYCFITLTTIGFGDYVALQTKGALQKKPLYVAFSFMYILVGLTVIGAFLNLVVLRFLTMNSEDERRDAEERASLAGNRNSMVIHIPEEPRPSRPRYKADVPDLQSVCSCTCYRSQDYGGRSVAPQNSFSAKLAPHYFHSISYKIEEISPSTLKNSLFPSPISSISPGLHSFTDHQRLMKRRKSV

As to `CCCNc1nc(NCCC)nc(N(C)OC)n1.O=S(=O)(O)O` [XXXVI, N-(4,6-Bis-n-propylamino-[1,3,5]triazin-2-yl)-N,O-dimethyl-hydroxylamine hydrogen sulfate], the half-maximal inhibitory concentration (IC50) at human KCNK9/TASK-3 was more than 30 µM. For the same compound, in assay [1], the “end-tidal carbon dioxide increases caused by the opioid” value was “full reversal” and the minute ventilation result is recorded as “increased minute ventilation”. Besides, the IC50 on rat KCNK3/TASK-1 was determined as 25 µM. Also, the “arterial blood gases, reversal of opioid-induced respiratory depression” value in assay [2] (infusion 0.1, 0.3 and 1.0 mg/kg/min, vs vehicle) is on record as “significantly reverses opioid-induced respiratory depression”. In addition, in assay [2] (infusion 0.03 mg/kg/min), the “PaCO2 (% reversal)” value was 18 % reversal, the “PaO2 (% reversal)” value is listed as −2.0 % reversal, the “SaO2 (% reversal)” value was found to be 42 % reversal and the “pH (% reversal)” value turned out to be 20 % reversal. For the same compound, in assay [2] (infusion 0.1 mg/kg/min), the “PaCO2 (% reversal)” value was found to be 47 % reversal, the “PaO2 (% reversal)” value amounted to 16 % reversal, the “SaO2 (% reversal)” value worked out at 51 % reversal and the “pH (% reversal)” value amounted to 37 % reversal. In addition, in assay [2] (infusion 0.3 mg/kg/min), the “PaCO2 (% reversal)” value was determined as 72 % reversal, the “PaO2 (% reversal)” value is −16 % reversal, the “SaO2 (% reversal)” value is listed as 43 % reversal and the “pH (% reversal)” value was determined as 55 % reversal. In assay [2] (infusion 1 mg/kg/min), the “PaCO2 (% reversal)” value turned out to be 94 % reversal, the “PaO2 (% reversal)” value worked out at 26 % reversal, the “SaO2 (% reversal)” value was 62 % reversal and the “pH (% reversal)” value worked out at 60 % reversal.

Source of the values: patent publication US9162992B2, “Compounds and compositions for treatment of breathing control disorders or diseases” (GALLEON PHARMACEUTICALS, INC., priority 2010, dated 2015).
